Reference: publication PMC6379965, “Expression and activity of the calcitonin receptor family in a sample of primary human high-grade gliomas” (BMC Cancer, 2019)
Ends that are not written are not given here.

Legend:
CTR = settings: receptor CTR; ref [10], [11], [38]; cited from earlier work
AMY1 (CTR + RAMP1) = settings: receptor AMY1, CTR + RAMP1; ref [10], [11], [38]; cited from earlier work
AMY3 (CTR + RAMP3) = settings: receptor AMY3, CTR + RAMP3; ref [10], [11], [38]; cited from earlier work
CGRP (CLR + RAMP1) = settings: receptor CGRP, ref [10], [11], [38]; cited from earlier work
AM1 (CLR + RAMP2) = settings: receptor AM1, CLR + RAMP2; ref [10], [11], [38]; cited from earlier work
AM2 (CLR + RAMP3) = settings: receptor AM2, CLR + RAMP3; ref [10], [11], [38]; cited from earlier work
WK1 cell line [1] = experiment: cAMP accumulation, CTR agonists, WK1; format: cell-based, human; settings: 30 min, agonist 10^-12-10^-6 M, 3 to 5 independent experiments in triplicate
Experimental: (§1) Primary patient high-grade glioma (HGG) cell lines, in vitro surrogates of glioblastoma, were developed by QIMR-Berghofer Medical Research Institute (Brisbane, Australia) and represent 3 distinct GBM subtypes: SB2b and PB1 (classical), JK2 (proneural) and WK1(mesenchymal), who supplied these directly for this study. GBM cell lines were cultured as adherent monolayers on matrigel (BD Biosciences)-coated flasks using StemPro NSC SFM serum free cell culture medium (Thermo Fisher Scientific) supplemented with 20 ng/ml EGF and 20 ng/ml FGFb, 1% D-glutamine and 1% of penicillin/ streptomycin (further referred as StemPro complete medium). Cells were cultured in 5% CO2 / 95% humidified air at 37 °C.
GBM cell lines were seeded at 38000 cells/well (SB2b) or 35,000 cells/well (PB1, JK2 and WK1) in 96-well matrigel-coated plates and incubated for 24 h at 37°C, 5% CO2 in humidified incubator in StemPro complete medium. Media was replaced with stimulation buffer (phenol red free F12 media, 0.1% BSA, 0.5 mM IBMX, pH 7.4). […] Intracellular cAMP levels in the wells were determined using Lance Ultra cAMP assay kit (Perkin Elmer) according to the manufacturer’s instructions and detected using an Envision multilabel 2103 reader. […] Data were analysed by three-parameter logistic curve and are presented as percentage of 10^− 5 M forskolin response.

JK2 cell line = experiment: cAMP accumulation, CTR agonists, JK2; format: cell-based, human; settings: 30 min, 3 to 5 independent experiments in triplicate
Experimental: as §1
(§2) GBM cell lines were seeded at 38000 cells/well (SB2b) or 35,000 cells/well (PB1, JK2 and WK1) in 96-well matrigel-coated plates and incubated for 24 h at 37°C, 5% CO2 in humidified incubator in StemPro complete medium. Media was replaced with stimulation buffer (phenol red free F12 media, 0.1% BSA, 0.5 mM IBMX, pH 7.4). […] Cells were lysed (0.3% Tween 20, 5 mM Hepes, 0.1% BSA, pH 7.4) and 5 μl of cell lysate from each well was transferred to a corresponding well of 384-well optiplate. Intracellular cAMP levels in the wells were determined using Lance Ultra cAMP assay kit (Perkin Elmer) according to the manufacturer’s instructions and detected using an Envision multilabel 2103 reader. Raw RFU values were converted using a cAMP standard curve to give absolute cAMP concentrations. Data were analysed by three-parameter logistic curve and are presented as percentage of 10^− 5 M forskolin response.

PB1 cell line [2] = experiment: cAMP accumulation, CTR agonists, PB1; format: cell-based, human; settings: 30 min, 3 to 5 independent experiments in triplicate
Experimental: as §1, §2

SB2b cell line [3] = experiment: cAMP accumulation, αCGRP and AM, SB2b; format: cell-based, human; settings: 30 min, 3 to 4 independent experiments in triplicate
Experimental: as §1, with “medium).” for “medium). Cells were cultured in 5% CO2 / 95% humidified air at 37 °C.”
as §2, with “Intracellular cAMP levels in the wells were determined using Lance Ultra cAMP assay kit (Perkin Elmer) according to the manufacturer’s instructions and detected using an Envision multilabel 2103 reader. Raw RFU values were converted using a cAMP standard curve to give absolute cAMP concentrations.” left out

SB2b cell line [4] = experiment: Ca2+ mobilization, SB2b; format: cell-based, human; settings: Fluo4-AM, FlexStation, 37 °C, pH 7.4, peak RFU, ATP 10 μM, ionomycin 1 μM, representative experiment, 3 replicates
Experimental: (§4) Primary patient high-grade glioma (HGG) cell lines, in vitro surrogates of glioblastoma, were developed by QIMR-Berghofer Medical Research Institute (Brisbane, Australia) and represent 3 distinct GBM subtypes: SB2b and PB1 (classical), JK2 (proneural) and WK1(mesenchymal) [37], who supplied these directly for this study. GBM cell lines were cultured as adherent monolayers on matrigel (BD Biosciences)-coated flasks using StemPro NSC SFM serum free cell culture medium (Thermo Fisher Scientific) supplemented with 20 ng/ml EGF and 20 ng/ml FGFb, 1% D-glutamine and 1% of penicillin/ streptomycin (further referred as StemPro complete medium).
(§5) GBM cell lines were seeded at 38000 cells/well (SB2b) or 35,000 cells/well (PB1 and WK1) in 96-well matrigel-coated plates and incubated for 24 h at 37 °C, 5% CO2 in humidified incubator in StemPro complete medium. […] Cells were incubated at 37°C for 60 min before ligand addition and detection of Ca^2+ mobilisation in a FlexStation 3 (Molecular Devices).

WK1 cell line [5] = experiment: Ca2+ mobilization, WK1; format: cell-based, human; settings: Fluo4-AM, FlexStation, 37 °C, pH 7.4, peak RFU, ATP 10 μM, ionomycin 1 μM, representative experiment, 3 replicates
Experimental: as §4, §5

PB1 cell line [6] = experiment: Ca2+ mobilization, PB1; format: cell-based, human; settings: Fluo4-AM, FlexStation, 37 °C, pH 7.4, peak RFU, ATP 10 μM, ionomycin 1 μM, representative experiment, 3 replicates
Experimental: as §4, §5

[7] = tested on: mouse thymic lymphoma models; settings: CTR expressed as an amylin receptor, ref [18], [19]; cited from earlier work
From the text: (§3) Research on the role of CTR expression in cancer has been fragmentary and any role for CTR in cancer pathology seems to be entirely dependent on the cancer type. For instance, in human breast cancer model cell lines with high constitutive ERK (Extracellular Signal Regula ...

[8] = tested on: MDA-MB-231 xenograft tumours; settings: ref [13]; cited from earlier work
From the text: as §3

[9] = tested on: human prostate cancer cell line PC3; settings: ref [14], [15]; cited from earlier work
From the text: as §3

Amylin
Peptides rank order of potency (human) (CTR): sCT ≥ hCT > AMY, αCGRP > AM, intermedin
Peptides rank order of potency (human) (AMY1 (CTR + RAMP1)): sCT ≥ AMY ≥ αCGRP > intermedin ≥ hCT > AM
Peptides rank order of potency (human) (AMY3 (CTR + RAMP3)): sCT ≥ AMY > αCGRP > intermedin ≥ hCT > AM
Peptides rank order of potency (human) (CGRP (CLR + RAMP1)): αCGRP > AM ≥ intermedin > AMY ≥ sCT
Peptides rank order of potency (human) (AM1 (CLR + RAMP2)): AM > intermedin > α-CGRP, AMY > sCT
Peptides rank order of potency (human) (AM2 (CLR + RAMP3)): AM ≥ intermedin ≥ α-CGRP > AMY > SCT

CC(C)C[C@H](NC(=O)[C@H](CC(N)=O)NC(=O)[C@H](CC(N)=O)NC(=O)[C@H](CO)NC(=O)[C@H](CO)NC(=O)[C@H](CCCNC(=N)N)NC(=O)[C@@H](NC(=O)[C@H](CC(C)C)NC(=O)[C@H](Cc1ccccc1)NC(=O)[C@H](CC(N)=O)NC(=O)[C@H](C)NC(=O)[C@H](CC(C)C)NC(=O)[C@H](CCCNC(=N)N)NC(=O)[C@H](CCC(N)=O)NC(=O)[C@@H](NC(=O)[C@H](C)NC(=O)[C@@H]1CSSC[C@H](NC(=O)[C@@H](N)CCCCN)C(=O)N[C@@H](CC(N)=O)C(=O)N[C@@H]([C@@H](C)O)C(=O)N[C@@H](C)C(=O)N[C@@H]([C@@H](C)O)C(=O)N1)[C@@H](C)O)C(C)C)C(=O)NCC(=O)N1CCC[C@H]1C(=O)N[C@H](C(=O)N[C@@H](CC(C)C)C(=O)N1CCC[C@H]1C(=O)N1CCC[C@H]1C(=O)N[C@H](C(=O)N[C@@H](CC(N)=O)C(=O)N[C@H](C(=O)NCC(=O)N[C@@H](CO)C(=O)N[C@@H](CC(N)=O)C(=O)N[C@H](C(=O)N[C@@H](Cc1ccc(O)cc1)C(N)=O)[C@@H](C)O)C(C)C)[C@@H](C)O)C(C)C [amylin, Amylin]
cAMP response (WK1 cell line [1]): very weak response
cAMP response (JK2 cell line; agonist 10^-12-10^-6 M): very weak response
pEC50, cAMP accumulation (JK2 cell line; CTR agonists, 37 °C, S.E.M.): 5.9 ± 0.5
cAMP response (PB1 cell line [2]; agonist 10^-12-10^-6 M): very weak response
pEC50, cAMP accumulation (PB1 cell line [2]; CTR agonists, 37 °C, S.E.M.): 6.1 ± 0.5
cAMP response to αCGRP, adrenomedullin (and weak amylin response) (SB2b cell line [3]): Weak responses
intracellular Ca2+ mobilisation response (SB2b cell line [4]): unable to detect functional CTR response
intracellular Ca2+ mobilisation response (SB2b cell line [4]; listed as rAMY): Absence of intracellular calcium mobilization response
intracellular Ca2+ mobilisation response (WK1 cell line [5]): unable to detect functional CTR response
intracellular Ca2+ mobilisation response (WK1 cell line [5]; listed as rAMY): Absence of intracellular calcium mobilization response
intracellular Ca2+ mobilisation response (PB1 cell line [6]): unable to detect functional CTR response
intracellular Ca2+ mobilisation response (PB1 cell line [6]; listed as rAMY): Absence of intracellular calcium mobilization response
metabolic reprogramming [7]: metabolic reprogramming (switch from glycolysis to oxidative phosphorylation)
susceptibility to apoptosis [7]: increased susceptibility to apoptosis

CC[C@H](C)[C@H](NC(=O)[C@H](CCC(N)=O)NC(=O)[C@H](Cc1c[nH]cn1)NC(=O)[C@H](C)NC(=O)[C@H](CC(C)C)NC(=O)[C@H](CCCCN)NC(=O)[C@H](CCC(N)=O)NC(=O)[C@@H](NC(=O)[C@@H](NC(=O)[C@@H]1CSSC[C@H](NC(=O)CNC(=O)[C@H](Cc2ccccc2)NC(=O)[C@H](CO)NC(=O)[C@H](CCCNC(=N)N)NC(=O)[C@H](CC(C)C)NC(=O)CNC(=O)[C@H](CCC(N)=O)NC(=O)[C@H](Cc2ccccc2)NC(=O)[C@H](CC(N)=O)NC(=O)[C@H](CC(N)=O)NC(=O)[C@H](CCSC)NC(=O)[C@H](CO)NC(=O)[C@H](CCC(N)=O)NC(=O)[C@H](CCCNC(=N)N)NC(=O)[C@@H](N)Cc2ccc(O)cc2)C(=O)N[C@@H](CCCNC(=N)N)C(=O)N[C@@H](Cc2ccccc2)C(=O)NCC(=O)N[C@@H]([C@@H](C)O)C(=O)N1)[C@@H](C)O)C(C)C)C(=O)N[C@@H](Cc1ccc(O)cc1)C(=O)N[C@@H](CCC(N)=O)C(=O)N[C@@H](Cc1ccccc1)C(=O)N[C@H](C(=O)N[C@@H](CC(=O)O)C(=O)N[C@@H](CCCCN)C(=O)N[C@@H](CC(=O)O)C(=O)N[C@@H](CCCCN)C(=O)N[C@@H](CC(=O)O)C(=O)N[C@@H](CC(N)=O)C(=O)N[C@H](C(=O)N[C@@H](C)C(=O)N1CCC[C@H]1C(=O)N[C@@H](CCCNC(=N)N)C(=O)N[C@@H](CO)C(=O)N[C@@H](CCCCN)C(=O)N[C@H](C(=O)N[C@@H](CO)C(=O)N1CCC[C@H]1C(=O)N[C@@H](CCC(N)=O)C(=O)NCC(=O)N[C@@H](Cc1ccc(O)cc1)C(N)=O)[C@@H](C)CC)C(C)C)[C@@H](C)O [AM, Adrenomedullin]
cAMP response to αCGRP, adrenomedullin (and weak amylin response) (SB2b cell line [3]): Weak responses
Peptides rank order of potency (human) (CTR): sCT ≥ hCT > AMY, αCGRP > AM, intermedin
Peptides rank order of potency (human) (AMY1 (CTR + RAMP1)): sCT ≥ AMY ≥ αCGRP > intermedin ≥ hCT > AM
Peptides rank order of potency (human) (AMY3 (CTR + RAMP3)): sCT ≥ AMY > αCGRP > intermedin ≥ hCT > AM
Peptides rank order of potency (human) (CGRP (CLR + RAMP1)): αCGRP > AM ≥ intermedin > AMY ≥ sCT
Peptides rank order of potency (human) (AM1 (CLR + RAMP2)): AM > intermedin > α-CGRP, AMY > sCT
Peptides rank order of potency (human) (AM2 (CLR + RAMP3)): AM ≥ intermedin ≥ α-CGRP > AMY > SCT

Calcitonin (peptide) (CGNLSTCMLGTYTQDFNKFHTFPQTAIGVGAP; ends and bridges not checked; cysteine pairing not given here; UniProt P01258 85-116, looked up) [CT]
growth of xenograft tumours [8]: inhibits the growth
apoptosis [9]: inhibits apoptosis
tumour growth and invasiveness [9]: stimulates tumour growth and invasiveness
